Test results from patent US20040197859A1, “Isolated dna molecules encoding humanized calcitonin gene-related peptide receptor, related non-human transgenic animals and assay methods” (priority 2001, published 2004).

Experiments:
[1] = molecular target: T1, rCRLR/rRAMP1 (native rat CGRP receptor) (Rattus norvegicus, UniProt Q63118+Q9JJ74); assay: competitive 125I-hCGRP binding, membranes expressing rCRLR/rRAMP1
T1 construct: expressed in transfected cells; host or cells: 293 EBNA cells, transient co-transfection, membranes
Description: (§1) Cell Culture and DNA Transfection—293 EBNA cells were cultured in DMEM with 4.5 g/L glucose, 1 mM sodium pyruvate and 2 mM glutamine supplemented with 10% Fetal Bovine Serum (FBS), 100 units/mL penicillin and 100 μg/mL streptomycin, and maintained at 37° C. and 95% humidity. Cells were subcultured by treatment with 0.25% trypsin with 0.1% EDTA in HBSS.
(§2) Twenty-four hours prior to transfection, the cells were seeded at 2.0×10^7/dish in 500 cm^2 dishes. The following day, the cells were re-fed with fresh growth medium 1 hour before transfection. Transfections were performed by combining 60 μg/dish DNA with 180 μg/dish Lipofectamine 2000 (Life Technologies). cDNA's for CRLR and RAMP1 in the mammalian expression vector pcDNA3.1 were co-transfected in equal amounts. The transfection cocktail was added directly to the medium and this mixture was replaced with fresh medium 24 hours later. The cells were harvested for membranes 48 hours post-transfection.
(§3) Membrane Preparation and Radioligand Binding Studies—Transiently transfected 293 EBNA cells were washed once with PBS and harvested in harvest buffer containing 50 mM HEPES, 1 mM EDTA and Complete protease inhibitors (Roche).

rCRLR/hRAMP1 = molecular target: T2, rCRLR/hRAMP1 (UniProt O60894+Q63118); assay: competitive 125I-hCGRP binding, membranes expressing hybrid rCRLR/hRAMP1; set-up: species or system rat CRLR, human RAMP1; conditions: Table 4
T2 construct: expressed in transfected cells; host or cells: 293 EBNA cells, transient co-transfection, membranes
Description: as §1
as §2, with “post-transfection. […]” for “post-transfection.”
For binding assays, 1.5-25 μg of membranes (dependent upon receptor expression levels) were incubated for 3 hours at room temperature in binding buffer (10 mM HEPES, 5 mM MgCl2, 0.2% BSA) containing 10 pM ^125I-hCGRP (Amersham) in a total volume of 1 mL. […] Data were analyzed by using GraphPad Prism.

rCRLR/Chimera 1 = molecular target: T3, rCRLR/Chimera 1 (Rattus norvegicus, UniProt Q63118+Q9JJ74, D29E/D31N/E46V/G64R/I36L/I51V/K45Q/K53E/K61R/P30A/Q37R/R28Q/R43Q/S42T/T34A/T50A/V24T); assay: competitive 125I-hCGRP binding, membranes expressing rCRLR with RAMP1 Chimera 1; set-up: species or system rat CRLR, human/rat chimeric RAMP1; conditions: Table 5; rCRLR/Chimera 1 (first 66 aa of rRAMP1 replaced with human)
T3 construct: expressed in transfected cells; host or cells: 293 EBNA cells, transient co-transfection, membranes
Text: Two human/rat chimeric RAMP1 cDNAs were constructed by using restriction fragments of the corresponding native cDNAs. Chimera 1 was created by replacing the nucleotides coding for the first 66 amino acids of rRAMP1 with the corresponding nucleotides of hRAMP1 by using the BsgI restriction site along with a NheI site located in the cloning vector. Chimera 2 was created by replacing the nucleotides coding for the first 112 amino acids of rRAMP1 with the corresponding nucleotides of hRAMP1 by using the SanDI restriction site along with a NheI site located in the cloning vector. Cell Culture and DNA Transfection-293 EBNA cells were cultured in DMEM with 4.5 g/L glucose, 1 mM sodium pyruvate and 2 mM glutamine supplemented with 10% Fetal Bovine Serum (FBS), 100 units/mL penicillin and 100 μg/mL streptomycin, and maintained at 37° C. and 95% humidity. Cells were subcultured by treatment with 0.25% trypsin with 0.1% EDTA in HBSS. Twenty-four hours prior to transfection, the cells were seeded at 2.0×10^7/dish in 500 cm^2 dishes. The following day, the cells were re-fed with fresh growth medium 1 hour before transfection. Transfections were performed by combining 60 μg/dish DNA with 180 μg/dish Lipofectamine 2000 (Life Technologies). cDNA's for CRLR and RAMP1 in the mammalian expression vector pcDNA3.1 were co-transfected in equal amounts. […] Data were analyzed by using GraphPad Prism. […]

rCRLR/rK74W RAMP1 = molecular target: T4, rCRLR/rK74W RAMP1 (Rattus norvegicus, UniProt Q63118+Q9JJ74, K74W); assay: competitive 125I-hCGRP binding, membranes expressing rCRLR and mutant rK74W RAMP1; conditions: Table 6
T4 construct: and the rRAMP1 expression vector construct as template; expressed in transfected cells; host or cells: 293 EBNA cells, transient co-transfection, membranes
Description: Rat RAMP1 site-directed mutagenesis was performed by using the Quick Change Site-directed Mutagenesis Kit (Stratagene) according to the manufacturer's instructions. […] of rRAMP1 was replaced with the corresponding human/marmoset amino acid tryptophan utilizing two complementary mutant oligonucleotide primers ([NT] ID NO:27] and [NT] ID NO:28]) and the rRAMP1 expression vector construct as template. This mutation was accomplished by substituting the codon TGG corresponding to tryptophan (r[…] RAMP1). All constructs were sequenced bidirectionally with 100% coverage in each direction. Cell Culture and DNA Transfection-293 EBNA cells were cultured in DMEM with 4.5 g/L glucose, 1 mM sodium pyruvate and 2 mM glutamine supplemented with 10% Fetal Bovine Serum (FBS), 100 units/mL penicillin and 100 μg/mL streptomycin, and maintained at 37° C. and 95% humidity. Cells were subcultured by treatment with 0.25% trypsin with 0.1% EDTA in HBSS. Twenty-four hours prior to transfection, the cells were seeded at 2.0×10^7/dish in 500 cm^2 dishes. The following day, the cells were re-fed with fresh growth medium 1 hour before transfection. Transfections were performed by combining 60 μg/dish DNA with 180 μg/dish Lipofectamine 2000 (Life Technologies). cDNA's for CRLR and RAMP1 in the mammalian expression vector pcDNA3.1 were co-transfected in equal amounts. […] Data were analyzed by using GraphPad Prism. […]

[2] = molecular target: T5, mCRLR/mRAMP1 (native mouse receptor) (Mus musculus, UniProt Q9R1W5+Q9WTJ5); assay: competitive binding, membranes expressing mCRLR/mRAMP1; conditions: Table 7
T5 construct: expressed in transfected cells
Description: as §1, §2, §3

mCRLR/mK74W RAMP1 = molecular target: T6, mCRLR/mK74W RAMP1 (Mus musculus, UniProt Q9R1W5+Q9WTJ5, K74W); assay: competitive binding, membranes expressing mCRLR and mutant mK74W RAMP1; conditions: Table 7
T6 construct: The mouse RAMP1 expression vector construct was used as template; expressed in transfected cells
Description: as §1, §2, §3

human CGRP receptor = human CGRP receptor (Homo sapiens, UniProt O60894+Q16602); conditions: cited from earlier work
rCRLR/rRAMP1 (rat) = rCRLR/rRAMP1 (rat) (UniProt Q63118); assay: competitive radioligand binding against 10 pM 125I-hCGRP, membranes of transfected 293 EBNA cells

Molecule	IC50 ([1]; Table 4)	IC50 ([1]; Table 6)	IC50 (rCRLR/hRAMP1)	IC50 (rCRLR/Chimera 1)	IC50 (rCRLR/rK74W RAMP1)	IC50 [2]	IC50 (mCRLR/mK74W RAMP1)	higher affinity for the human CGRP receptor than for the rat receptor (human CGRP receptor; human vs rat, Doods et al.)	lower affinity for CGRP receptors from rat, rabbit, dog, and guinea pig (human CGRP receptor; versus human CGRP receptor, Doods et al. 2000)	IC50 (rCRLR/rRAMP1 (rat))
NCCCC[C@H](NC(=O)[C@@H](Cc1cc(Br)c(O)c(Br)c1)NC(=O)N1CCC(N2Cc3ccccc3NC2=O)CC1)C(=O)N1CCN(c2ccncc2)CC1 [BIBN4096BS]	6.9 nM	5.5 nM	0.41 nM	4.8 nM	0.08 nM	8.5 nM	0.1 nM	200 fold	200 fold	
CGRP8-37 (peptide)										2 nM
